According to ChEMBL document CHEMBL1147984, “Discovery, synthesis, and in vivo activity of a new class of pyrazoloquinazolines as selective inhibitors of aurora B kinase” (J Med Chem, 2007):
≈ marks a conversion by molar mass, not a printed value. Where “and” joins values, the source holds several entries; their conditions need not be identical. Equal values may be shown once.

Legend:
[1] = molecular target: T1, Aurora kinase A (Homo sapiens, UniProt O14965)
T1 sequence (O14965 whole entry): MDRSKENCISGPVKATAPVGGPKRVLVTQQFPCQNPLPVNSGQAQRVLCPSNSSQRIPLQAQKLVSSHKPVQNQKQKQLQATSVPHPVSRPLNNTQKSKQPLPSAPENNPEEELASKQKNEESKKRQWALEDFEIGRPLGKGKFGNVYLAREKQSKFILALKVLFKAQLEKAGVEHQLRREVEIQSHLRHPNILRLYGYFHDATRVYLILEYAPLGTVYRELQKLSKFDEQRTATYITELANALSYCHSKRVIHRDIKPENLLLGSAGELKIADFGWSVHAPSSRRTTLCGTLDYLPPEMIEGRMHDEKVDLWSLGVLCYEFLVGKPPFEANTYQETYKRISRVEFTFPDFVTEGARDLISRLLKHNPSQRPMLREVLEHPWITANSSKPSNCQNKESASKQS
Description: (§1) Inhibition of human recombinant Aurora A

[2] = molecular target: T1, Aurora kinase A; remark: listed apart in the source
Description: as §1

[3] = molecular target: SW-620
Description: inhibition of histone-H3 phosphorylation following 24 hr incubation in SW620 tumor cells

[4] = molecular target: Aurora kinase B (Homo sapiens, UniProt Q96GD4)
Description: Inhibition of human recombinant Aurora B

[5] = physchem; details: octanol/water, pH 7.4
[6] = P450 isoforms 3A4; format: ADME
[7] = protein binding; format: ADME; details: read-out: PB (converted)
[8] = solubility (tris buffer pH9); format: physicochemical; details: pH 9, read-out: S
[9] = in vivo; details: rat
[10] = rat
[11] = aqueous solubility; format: physicochemical; details: read-out: S

Chain of Aurora kinase B (Q96GD4 whole entry): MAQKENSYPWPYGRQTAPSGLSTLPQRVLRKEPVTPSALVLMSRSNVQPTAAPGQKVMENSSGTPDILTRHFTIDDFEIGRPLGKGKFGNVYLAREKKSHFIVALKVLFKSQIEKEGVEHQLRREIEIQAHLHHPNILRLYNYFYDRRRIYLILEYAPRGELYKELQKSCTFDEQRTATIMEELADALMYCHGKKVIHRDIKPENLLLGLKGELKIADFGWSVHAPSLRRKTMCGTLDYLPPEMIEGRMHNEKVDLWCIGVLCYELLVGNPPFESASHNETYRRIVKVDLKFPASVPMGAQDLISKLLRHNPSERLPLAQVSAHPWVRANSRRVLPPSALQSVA

Ki [2] | Ki [3] [nM] | Ki [4] [nM] | SMILES | other results
4000 nM | > 10000 |  | COc1cc2c(Nc3cc(CC(=O)Nc4cccc(O)c4)[nH]n3)ncnc2cc1OCCCN1CCC(CO)CC1 | Ki [1]: 140 nM
450 nM | 1200 |  | COc1cc2c(Nc3cc(CC(=O)Nc4cccc(Cl)c4)[nH]n3)ncnc2cc1OCCCN1CCC(CO)CC1 | Ki [1]: 8 nM
 | 370 |  | COc1cc2c(Nc3cc(CC(=O)Nc4cc(F)cc(F)c4)[nH]n3)ncnc2cc1OCCCN1CCC(CO)CC1 | 
 | 540 |  | COc1cc2c(Nc3cc(CC(=O)Nc4cccc(F)c4F)[nH]n3)ncnc2cc1OCCCN1CCC(CO)CC1 | 
2600 nM | > 10000 |  | COc1cc2c(Nc3cc(CC(=O)Nc4cccc(C#N)c4)[nH]n3)ncnc2cc1OCCCN1CCC(CO)CC1 | Ki [1]: 83 nM
 | 1800 | 510 | COc1cc2c(Nc3cc(CC(=O)Nc4cccc(C(F)(F)F)c4)[nH]n3)ncnc2cc1OCCCN1CCC(CO)CC1 | Ki [1]: 13 nM
2000 nM | 2600 |  | COc1cc2c(Nc3cc(CC(=O)Nc4ccc(F)cc4)[nH]n3)ncnc2cc1OCCCN1CCC(CO)CC1 | Ki [1]: 30 nM
280 nM | 130 | < 1 | COc1cc2c(Nc3cc(CC(=O)Nc4cccc(F)c4F)[nH]n3)ncnc2cc1OCCCN1CCC(CCO)CC1 | 
1600 nM and 1200 nM |  |  | COc1cc2c(Nc3cc(CC(=O)Nc4ccccc4)[nH]n3)ncnc2cc1OCCCN1CCC(CO)CC1 | Ki [1]: 18 nM
110 nM | 330 | 1 | COc1cc2c(Nc3cc(CC(=O)Nc4cccc(F)c4)[nH]n3)ncnc2cc1OCCCN1CCC[C@@H]1CO | fraction unbound [7]: 0.05
220 nM | 78 | < 1 | COc1cc2c(Nc3cc(CC(=O)Nc4cccc(F)c4F)[nH]n3)ncnc2cc1OCCCN1CCC(O)CC1 | 
1400 nM and 470 nM |  |  | COc1cc2c(Nc3cc(CC(=O)Nc4ccccc4F)[nH]n3)ncnc2cc1OCCCN1CCC(CO)CC1 | Ki [1]: 14 nM
890 nM | > 10000 |  | COc1cc2c(Nc3cc(CC(=O)Nc4cccc([N+](=O)[O-])c4)[nH]n3)ncnc2cc1OCCCN1CCC(CO)CC1 | Ki [1]: 39 nM

Continued, compound first:

SMILES | Ki [2] | Ki [3] [nM] | Ki [4] [nM] | other results
CCN(CCO)CCCOc1cc2ncnc(Nc3cc(CC(=O)Nc4cccc(F)c4F)[nH]n3)c2cc1OC | 360 nM | 45 | < 1 | logD [5]: 1.9; IC50 [6]: > 10000 nM; fraction unbound [7]: 0.17
CCCN(CCCOc1cc2ncnc(Nc3cc(CC(=O)Nc4cccc(F)c4F)[nH]n3)c2cc1OC)CCOP(=O)(O)O |  |  |  | solubility [8]: 25 mg/mL (≈ 38.5 mM)
COc1cc2c(Nc3cc(CC(=O)Nc4cccc(F)c4)[nH]n3)ncnc2cc1OCCCN(C)CCO | 65 nM | 120 | < 1 | 
COc1cc2c(Nc3cc(CC(=O)Nc4cccc(F)c4F)[nH]n3)ncnc2cc1OCCCN(CCO)CC(C)C | 18 nM | < 1 | < 1 | logD [5]: 3.6; IC50 [6]: 400 nM
COc1cc2c(Nc3cc(CC(=O)Nc4cccc(F)c4F)[nH]n3)ncnc2cc1OCCCN1CCC[C@H]1CO | 39 nM | 45 | < 1 | 
CCCN(CCO)CCCOc1ccc2c(Nc3cc(CC(=O)Nc4cccc(F)c4F)[nH]n3)ncnc2c1 | 350 nM | 2 | < 1 | 
COc1cc2c(Nc3cc(CC(=O)Nc4cccc(F)c4F)[nH]n3)ncnc2cc1OCCCN1CCC[C@@H]1COP(=O)(O)O |  |  |  | solubility [8]: 25 mg/mL (≈ 38.6 mM)
CCN(CCCOc1ccc2c(Nc3cc(CC(=O)Nc4cccc(F)c4)n[nH]3)ncnc2c1)CCOP(=O)(O)O [BARASERTIB] |  |  |  | solubility [8]: 25 mg/mL (≈ 42.5 mM)
COc1cc2c(Nc3cc(CC(=O)Nc4cccc(F)c4F)[nH]n3)ncnc2cc1OCCCN1CCC[C@@H]1CO | 94 nM | 42 | 1 | clearance [9]: 63 mL/min/kg; AB [10]: 85%; logD [5]: 2; fraction unbound [7]: 0.15
O=C(Cc1cc(Nc2ncnc3cc(OCCCN4CCC[C@@H]4COP(=O)(O)O)ccc23)n[nH]1)Nc1cccc(F)c1F |  |  |  | solubility [8]: 25 mg/mL (≈ 40.5 mM)
CCCN(CCO)CCCOc1ccc2c(Nc3cc(CC(=O)Nc4cccc(F)c4)[nH]n3)ncnc2c1 | 980 nM | 7 | < 1 | 
COc1cc2c(Nc3ncc(CC(=O)Nc4cccc(F)c4)s3)ncnc2cc1OCCCN1CCC(COP(=O)(O)O)CC1 |  |  |  | solubility [11]: > 10 mg/mL
CCN(CCO)CCCOc1cc2ncnc(Nc3cc(CC(=O)Nc4cccc(F)c4)[nH]n3)c2cc1OC | 190 nM | 270 | 1 | logD [5]: 2.1; fraction unbound [7]: 0.05
CCN(CCO)CCCOc1ccc2c(Nc3cc(CC(=O)Nc4cccc(F)c4F)[nH]n3)ncnc2c1 | 160 nM | 7 | < 1 | 
COc1cc2c(Nc3cc(CC(=O)Nc4cccc(F)c4)[nH]n3)ncnc2cc1OCCCNCCO | 690 nM | 630 | 1 | 
COc1cccc(NC(=O)Cc2cc(Nc3ncnc4cc(OCCCN5CCC(CO)CC5)c(OC)cc34)[nH]n2)c1 |  | 5500 |  | 
O=C(Cc1cc(Nc2ncnc3cc(OCCCN4CCC[C@@H]4CO)ccc23)n[nH]1)Nc1cccc(F)c1F | 950 nM | 5 | < 1 | clearance [9]: 15 mL/min/kg; AB [10]: 89%; logD [5]: 2.1
COc1cc2c(Nc3ncc(CC(=O)Nc4cccc(F)c4)s3)ncnc2cc1OCCCN1CCC(CO)CC1 |  | 5 |  | fraction unbound [7]: 0.02
O=C(Cc1cc(Nc2ncnc3cc(OCCCN4CCC[C@@H]4CO)ccc23)n[nH]1)Nc1cccc(F)c1 | 1400 nM | 24 | < 1 | 
COc1cc2c(Nc3cc(CC(=O)Nc4cccc(F)c4F)[nH]n3)ncnc2cc1OCCCN1CCN(CCO)CC1 | 55 nM | 71 | < 1 | 
CCCN(CCO)CCCOc1cc2ncnc(Nc3cc(CC(=O)Nc4cccc(F)c4)[nH]n3)c2cc1OC | 220 nM | 290 | 2 | 
